In ChEMBL document CHEMBL2321823, “Synthesis of novel analogs of cabergoline: improving cardiovascular safety by removing 5-HT2B receptor agonism” (ACS Med Chem Lett, 2013):

What was measured:
[1] = target: T1, 5-hydroxytryptamine receptor 2B (Homo sapiens, UniProt P41595); assay: (§1) Partial agonist activity at human 5-HT2B receptor expressed in HEK293 cells assessed as intracellular calcium mobilization by FLIPR analysis; type: cell-based; conditions: hek293
[2] = target: T1, 5-hydroxytryptamine receptor 2B; assay: (§2) Agonist activity at human 5-HT2B receptor transfected in CHO cell assessed as IP1 production incubated for 30 mins measured by HTRF detection method; type: cell-based; conditions: for Activity: human, cho, 0.5 h
[3] = target: T1, 5-hydroxytryptamine receptor 2B; assay: Displacement of [125I](+/-)DOI from human 5-HT2B receptor transfected in CHO cell membrane after 60 mins by scintillation counting analysis; type: cell membranes
[4] = target: D(2) dopamine receptor (Homo sapiens) (UniProt P14416); assay: Partial agonist activity at human D2 receptor transfected in HTLA cells measured after overnight incubation by luminescence counter analysis; type: cell-based
[5] = target: T1, 5-hydroxytryptamine receptor 2B; assay: Antagonist activity at human 5-HT2B receptor transfected in CHO cell assessed as decrease in 5-HT-induced IP1 production preincubated for 5 mins before 5-HT addition measured after 30 mins by HTRF detection method; type: functional, cell-based
[6] = target: 5-hydroxytryptamine receptor 2A (Homo sapiens, UniProt P28223); assay: Antagonist activity at human 5-HT2A receptor assessed as decrease in agonist-induced intracellular calcium mobilization preincubated for 10 mins prior to agonist addition measured by FLIPR analysis; type: functional, cell-based
[7] = target: T2, 5-HT2B receptor (Homo sapiens, UniProt P41595); assay: as §2; type: cell-based; conditions: human, CHO cells transfected with human 5-HT2B receptor
[8] = target: T2, 5-HT2B receptor; assay: as §1; type: cell-based; conditions: HEK293 cells expressing human 5-HT2B receptor

T1 sequence (P41595 whole entry): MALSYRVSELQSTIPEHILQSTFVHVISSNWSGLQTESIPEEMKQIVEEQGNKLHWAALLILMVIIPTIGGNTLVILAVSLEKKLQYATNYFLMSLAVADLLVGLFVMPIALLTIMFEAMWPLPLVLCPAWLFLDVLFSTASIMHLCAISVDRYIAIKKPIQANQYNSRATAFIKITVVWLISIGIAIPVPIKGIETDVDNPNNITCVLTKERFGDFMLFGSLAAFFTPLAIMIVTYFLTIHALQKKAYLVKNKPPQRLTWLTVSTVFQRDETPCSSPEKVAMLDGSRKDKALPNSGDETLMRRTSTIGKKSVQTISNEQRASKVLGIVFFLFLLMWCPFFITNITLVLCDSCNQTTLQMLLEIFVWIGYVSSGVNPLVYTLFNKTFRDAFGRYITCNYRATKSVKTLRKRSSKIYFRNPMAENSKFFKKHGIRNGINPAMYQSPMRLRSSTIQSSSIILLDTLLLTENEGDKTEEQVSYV
T2 sequence (P41595 whole entry): as above
Sequence of D(2) dopamine receptor (Homo sapiens) (P14416 whole entry): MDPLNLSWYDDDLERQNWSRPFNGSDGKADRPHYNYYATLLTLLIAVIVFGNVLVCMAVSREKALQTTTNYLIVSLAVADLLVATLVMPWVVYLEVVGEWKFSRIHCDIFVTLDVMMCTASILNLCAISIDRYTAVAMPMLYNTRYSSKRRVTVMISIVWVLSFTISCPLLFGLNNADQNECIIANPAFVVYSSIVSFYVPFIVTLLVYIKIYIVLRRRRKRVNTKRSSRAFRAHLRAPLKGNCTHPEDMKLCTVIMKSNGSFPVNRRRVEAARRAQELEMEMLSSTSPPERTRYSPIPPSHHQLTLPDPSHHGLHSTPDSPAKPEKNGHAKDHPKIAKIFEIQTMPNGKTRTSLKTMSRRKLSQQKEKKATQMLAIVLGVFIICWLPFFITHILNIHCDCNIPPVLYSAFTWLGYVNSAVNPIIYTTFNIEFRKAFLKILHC
Sequence of 5-hydroxytryptamine receptor 2A (P28223 whole entry): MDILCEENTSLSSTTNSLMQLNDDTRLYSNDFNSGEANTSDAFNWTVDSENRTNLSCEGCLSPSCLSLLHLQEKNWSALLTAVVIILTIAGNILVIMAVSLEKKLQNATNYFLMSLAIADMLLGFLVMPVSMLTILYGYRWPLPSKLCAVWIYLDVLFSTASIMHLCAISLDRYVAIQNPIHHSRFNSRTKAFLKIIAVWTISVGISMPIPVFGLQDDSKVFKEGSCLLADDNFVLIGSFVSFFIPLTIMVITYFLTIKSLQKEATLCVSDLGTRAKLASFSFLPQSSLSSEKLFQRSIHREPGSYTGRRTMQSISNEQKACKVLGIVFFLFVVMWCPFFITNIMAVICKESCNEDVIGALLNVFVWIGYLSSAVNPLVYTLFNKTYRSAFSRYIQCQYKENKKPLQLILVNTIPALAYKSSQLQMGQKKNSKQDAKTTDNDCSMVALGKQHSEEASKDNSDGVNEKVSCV

Row | SMILES | Activity [1] | Activity [2] | Ki [3] [nM] | Emax [4] [%] | IC50 [5] [nM] | Kb [5] [nM] | IC50 [6] [nM] | EC50 [2] [nM] | Emax at 0.5 h [7] [%] | Emax [8] [%]
1 | CCNC(=O)N(CCCN(C)C)C(=O)[C@@H]1C[C@@H]2c3cccc4c3c(cn4C)C[C@H]2N(C)C1 | Not Active | Not Active | 1 | 50 | 22 | 5.6 | 11500 | – | – | –
2 | COC(OC)[C@@H]1C[C@@H]2c3cccc4c3c(cn4C)C[C@H]2N(C)C1 | Not Active | Not Active | 0.54 | – | 13 | 3.3 | – | – | – | –
3 | C=CCN1C[C@H](C(=O)N(CCCN(C)C)C(=O)NCC)C[C@@H]2c3cccc4[nH]cc(c34)C[C@H]21 [CABERGOLINE] | – | – | 1.4 | – | – | – | – | 13 | 103 | –
4 | C=CCN1C[C@H](C(=O)N(CCCN2CCOCC2)C(=O)NCC)C[C@@H]2c3cccc4[nH]cc(c34)C[C@H]21 | – | – | 7.1 | – | – | – | – | 13 | 106 | –
5 | CN(C)CCCNC(=O)[C@@H]1C[C@@H]2c3cccc4c3c(cn4C)C[C@H]2N(C)C1 | – | – | 0.97 | – | 37 | 9.3 | – | – | < 12 | < 12
